Assay results published in patent US11439657B2, “Cancer stem cell growth inhibitor using miRNA” (CancerStem Tech Inc., priority 2017, dated 2022).
Entries after “also recorded” stand apart in the source; their conditions may differ.

Experiments:
[1] = system: cancer stem cell population (ZsGreen+) established from pancreatic cancer cell line Panc-1; experiment: Screening of miRNAs: cell count (cell viability) of the cancer stem cell population after transfection; type: cell-based, human; conditions: miRNA 10 pmol/well, lipofectamin 2000, cells counted 48 and 72 hours later, FIG. 4
Source text: A cancer stem cell line was established by transducing a pancreatic cancer cell line (Panc-1) with an ODC (Ornithine Decarboxylase)-Degron system capable of visualizing low metabolism that is a property of cancer stem cells using a retrovirus vector (FIG. 1a). The base sequence coding the used ODC-Degron is as set forth in SEQ ID NO: 10. Usually, cancer stem cells are so 26s proteasome hypometabolic that they cannot degrade the introduced fluorescently labeled Ornithine Decarboxylase Degron, and thus the fluorescent protein sufficiently accumulates to provide visualization.
However, even when the ODC-degron system was introduced into the pancreatic cancer cell line Panc-1, only about 0.06% cells emitting fluorescence (green) were obtained in total. With such a small number of cancer stem cells, a series of experiments including drug screening cannot be performed. Accordingly, further enrichment of cancer stem cells provided a cancer stem cell population in which cells having observed fluorescent coloring (i.e., cancer stem cells) accounted for about 81.18% in total (FIG. 1b). The obtained cancer stem cell population was designated as ZsGreen+.
A cell suspension prepared by suspending the cancer stem cell population (ZsGreen+) in a medium (DMEM medium containing 10% by volume FBS) was seeded in each well of a 24-well plate at a density of 5000 to 10000 cells/well, followed by culture at 37° C. overnight. Thereafter, according to the lipofectamin 2000 protocol, each miRNA was transfected at 10 pmol/well, and 48 hours and 72 hours later, the cells were counted. In addition, tests were also conducted under the same condition on a case where the miRNA was not introduced (untreated group, control), a case where has-miR-34a (SEQ ID NO: 8) was used (positive control) in place of the selected miRNA, and a case where a control miRNA (SEQ ID NO: 9) was used (NC1, negative control) in place of the selected miRNA. In addition, for comparison, the non-cancer stem cell population (ZsGreen−) was used in place of the cancer stem cell population (ZsGreen+) to conduct tests under the same condition.
The ratio of the number of cells under each condition to the number of control cells into which the miRNA was not introduced (cell viability, %) was determined.

[2] = system: human large bowel cancer cells (DLD1 line); experiment: Antitumor effect on human large bowel cancer cells, cell count after transfection; type: cell-based; conditions: 10 pmol/well, FIG. 11; for antitumor effect: 72 hours, positive control hsa-miR-34a; for proliferation inhibitory effect on large bowel cancer cells: cells counted 72 hours after transfection
Protocol: (§1) A cell suspension prepared by suspending human pancreatic cancer cells (Bxpc3 line) in D-MEM medium (containing 10% by volume FBS) was seeded in each well of a 24-well plate at 3×10^3 cells/well, followed by culture at 37° C. overnight. Thereafter, according to the lipofectamin 2000 protocol, each miRNA was transfected at 10 pmol/well, and 48 hours later, the cells were counted. In addition, tests were also conducted under the same condition on a case where the miRNA was not introduced (untreated group), a case where hsa-miR-34a (SEQ ID NO: 8) was used (positive control) in place of the miRNA, and a case where a control miRNA (SEQ ID NO: 9) was used (control miRNA, negative control) in place of the selected miRNA.
(§2) As to hsa-miR-136-5p, hsa-miR-3065-3p, hsa-miR-4727-5p, hsa-miR-378g, hsa-miR-181a-5p, hsa-miR-362-5p and hsa-miR-608, evaluation was performed of the antitumor effect on human large bowel cancer cells. The specific test method is the same as that for Test Example 4 except that human large bowel cancer cells (DLD1 line) were used as cancer cells, and that the cells were counted 72 hours after transfection.

[3] = system: human esophageal cancer cells (TE11 line); experiment: Antitumor effect on human esophageal cancer cells, cell count after transfection; type: cell-based; conditions: 10 pmol/well, FIG. 12; for antitumor effect: 72 hours, positive control hsa-miR-34a; for proliferation inhibitory effect on esophageal cancer cells: cells counted 72 hours after transfection
Protocol: as §1
as §2, with “hsa-miR-378g and” for “hsa-miR-378g,”, “hsa-miR-181a-5p,” for “hsa-miR-181a-5p, hsa-miR-362-5p and hsa-miR-608,”, “esophageal” for “large bowel”, “(TE11” for “(DLD1”

[4] = system: human pancreatic cancer cells (Bxpc3 line); experiment: Antitumor effect on human pancreatic cancer cells (1), cell count after transfection; type: cell-based; conditions: 10 pmol/well, FIG. 8; for antitumor effect: 48 hours, positive control hsa-miR-34a; for proliferation inhibitory effect on pancreatic cancer cells: cells counted 48 hours later
Protocol: as §1

| Substance | proliferation inhibitory effect on cancer stem cells (cell viability) [1] | antitumor effect [2] | proliferation inhibitory effect on large bowel cancer cells [2] | antitumor effect [3] | proliferation inhibitory effect on esophageal cancer cells [3] | antitumor effect [4] | proliferation inhibitory effect on pancreatic cancer cells [4] |
| --- | --- | --- | --- | --- | --- | --- | --- |
| has-miR-34a: positive control miRNA (SEQ ID NO: 8), conventionally considered to have the highest therapeutic effect on solid tumor (UGGCAGUGUCUUAGCUGGUUGU; listed as RNA, chemistry not given here; listed as Homo sapiens) [reference compound] | not sufficient |  |  |  |  |  |  |
| hsa-miR-362-5p: human-derived miR-362-5p; base sequence set forth in SEQ ID NO: 6 as mature miRNA (AAUCCUUGGAACCUAGGUGUGAGU; listed as RNA, chemistry not given here; listed as Homo sapiens) | effectively suppress proliferation of cancer stem cells; also recorded: prominent proliferation inhibitory effect | much better antitumor effect than that of hsa-miR-34a; also recorded: particularly remarkable antitumor effect | strong proliferation inhibitory effect |  |  |  |  |
| hsa-miR-378g: human-derived miR-378g; base sequence set forth in SEQ ID NO: 4 as mature miRNA (ACUGGGCUUGGAGUCAGAAG; listed as RNA, chemistry not given here; listed as Homo sapiens) | effectively suppress proliferation of cancer stem cells | much better antitumor effect than that of hsa-miR-34a | strong proliferation inhibitory effect | much better antitumor effect than that of hsa-miR-34a | strong proliferation inhibitory effect | much better antitumor effect than that of hsa-miR-34a | strong proliferation inhibitory effect |
| hsa-miR-608: human-derived miR-608; base sequence set forth in SEQ ID NO: 7 as mature miRNA (AGGGGUGGUGUUGGGACAGCUCCGU; listed as RNA, chemistry not given here; listed as Homo sapiens) | effectively suppress proliferation of cancer stem cells; also recorded: prominent proliferation inhibitory effect | much better antitumor effect than that of hsa-miR-34a; also recorded: particularly remarkable antitumor effect | strong proliferation inhibitory effect |  |  |  |  |
| hsa-miR-4727-5p: human-derived miR-4727-5p; base sequence set forth in SEQ ID NO: 3 as mature miRNA (AUCUGCCAGCUUCCACAGUGG; listed as RNA, chemistry not given here; listed as Homo sapiens) | effectively suppress proliferation of cancer stem cells | much better antitumor effect than that of hsa-miR-34a | strong proliferation inhibitory effect | much better antitumor effect than that of hsa-miR-34a | strong proliferation inhibitory effect | much better antitumor effect than that of hsa-miR-34a | strong proliferation inhibitory effect |
